Here are results for two compounds from patent US4292428A, “Cephalosporin derivatives” (Hoffmann-La Roche Inc., priority 1978, dated 1981).

Read-outs that look alike come from different tables or passages of the source.

In one series the test system is Escherichia coli. Put plainly: Activity in vivo: mice infected intraperitoneally with Escherichia coli, survival on the 4th day. To be noted: 96 h, survivors on 4th day, by interpolation, read-out: CD50 (dosage at which 50% of the mice survive). On the procedure:
Groups of 5 mice are infected intraperitoneally with an aqueous suspension of Escherichia coli. The derivative to be tested is administered orally or subcutaneously 1, 2.5 and 4 hours after the infection. The number of surviving mice is determined on the 4th day. Various dosages of the derivative are administered and the dosage at which 50% of the mice survive (CD50, mg/kg) is determined by interpolation.

Series [1] can be described thus: Toxicity (mice, 24 hour value). To be noted: mouse, in vivo, po. As for the experimental part: |Toxicity: (mice, 24 hour value)
Setting [2] is: oral, 1, 2.5 and 4 hours after intraperitoneal infection.
Setting [3] is: sc, subcutaneous, 1, 2.5 and 4 hours after intraperitoneal infection.

Consider `CON=C(C(=O)NC1C(=O)N2C(C(=O)OCOC(=O)C(C)(C)C)=C(CSc3nc(=O)c(OCOC(=O)C(C)(C)C)nn3C)CSC12)c1ccco1` [Derivative B, Methylene-(6R,7R)-3-{[[2,5-dihydro-2-methyl-5-oxo-6-[(pivaloyloxy)methoxy]-as-triazin-3-yl]thio]methyl}-7-[2-(2-furyl)-2-(methoxyimino)acetamido]-8-oxo-5-thia-1-azabicyclo[4.2.0]oct-2-ene-2-carboxylate pivalate (Z-isomer)], for which the values for the ED50 with Escherichia coli (setting [2]) and with Escherichia coli (setting [3]) were 0.03 mg/kg and 0.02 mg/kg, respectively. In addition, the LD50 at 24 h in series [1] was in the range of 1250 to 2500 mg/kg.
Take `CON=C(C(=O)NC1C(=O)N2C(C(=O)OCOC(=O)C(C)(C)C)=C(CSc3n[nH]c(=O)c(=O)n3C)CSC12)c1ccco1` [Derivative A, Methylene-(6R,7R)-7-[2-(2-furyl)-2-(methoxyimino)-acetamido]-8-oxo-3-[[(1,4,5,6-tetrahydro-4-methyl-5,6-dioxo-as-triazin-3-yl)thio]methyl]-5-thia-1-azabicyclo-[4.2.0]oct-2-ene-2-carboxylate pivalate (Z-isomer)]: the ED50 was 0.05 mg/kg in the series with Escherichia coli (setting [2]) and 0.02 mg/kg in the series with Escherichia coli (setting [3]). This compound also yielded an LD50 at 24 h in series [1] of 2500 to 5000 mg/kg.
